Experimental data: patent publication US12612409B2, “Pyrrolopyrimidines as CFTR potentiators” (Cystic Fibrosis Foundation, priority 2016, dated 2026)

Experiments:
[1] = target: T1, CFTR in F508del/F508del primary CF hBE cells (Homo sapiens, UniProt P13569, DEL508-508); assay: Ussing chamber electrophysiology assay of CFTR potentiation in F508del/F508del CF bronchial epithelial cells (27° C.); type: cell-based
T1 construct: Primary cystic fibrosis human bronchial epithelial (CF hBE) cells were expanded and cultured; endogenous in cells; host or cells: primary CF human bronchial epithelial cells, genotype F508del/F508del
Summary of the method: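 Well-differentiated primary CF hBE cells (>30 days air/liquid interface) in Ussing chambers, HEPES saline both sides, voltage clamped to zero. Amiloride 30 uM, forskolin 10 uM, four rising compound concentrations, then CFTRinh-172 20 uM added at 20-25 min intervals. Short-circuit current scaled to DMSO (0%) and a positive control potentiator maximum (100%).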

[2] = target: T2, recombinant F508del V470 CFTR in Fischer rat thyroid (FRT) cells (Homo sapiens, UniProt P13569, DEL508-508); assay: FRT ion flux assay of F508del CFTR potentiation; type: cell-based; settings: FRT cells expressing F508del V470 CFTR, forskolin 20 uM, 27° C. pre-incubation
T2 construct: expressed in transfected cells
Summary of the method: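 FRT cells co-expressing F508del V470 CFTR and halide-sensitive YFP, temperature-corrected at 27° C for 16-24 h, then treated 30 min with compound plus 20 uM forskolin. Iodide addition quenches YFP, read after ~21 s; ratio scaled to DMSO (0%) and positive control potentiator (100%).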

T2 sequence (P13569 with tags, fused parts or gaps DEL508-508): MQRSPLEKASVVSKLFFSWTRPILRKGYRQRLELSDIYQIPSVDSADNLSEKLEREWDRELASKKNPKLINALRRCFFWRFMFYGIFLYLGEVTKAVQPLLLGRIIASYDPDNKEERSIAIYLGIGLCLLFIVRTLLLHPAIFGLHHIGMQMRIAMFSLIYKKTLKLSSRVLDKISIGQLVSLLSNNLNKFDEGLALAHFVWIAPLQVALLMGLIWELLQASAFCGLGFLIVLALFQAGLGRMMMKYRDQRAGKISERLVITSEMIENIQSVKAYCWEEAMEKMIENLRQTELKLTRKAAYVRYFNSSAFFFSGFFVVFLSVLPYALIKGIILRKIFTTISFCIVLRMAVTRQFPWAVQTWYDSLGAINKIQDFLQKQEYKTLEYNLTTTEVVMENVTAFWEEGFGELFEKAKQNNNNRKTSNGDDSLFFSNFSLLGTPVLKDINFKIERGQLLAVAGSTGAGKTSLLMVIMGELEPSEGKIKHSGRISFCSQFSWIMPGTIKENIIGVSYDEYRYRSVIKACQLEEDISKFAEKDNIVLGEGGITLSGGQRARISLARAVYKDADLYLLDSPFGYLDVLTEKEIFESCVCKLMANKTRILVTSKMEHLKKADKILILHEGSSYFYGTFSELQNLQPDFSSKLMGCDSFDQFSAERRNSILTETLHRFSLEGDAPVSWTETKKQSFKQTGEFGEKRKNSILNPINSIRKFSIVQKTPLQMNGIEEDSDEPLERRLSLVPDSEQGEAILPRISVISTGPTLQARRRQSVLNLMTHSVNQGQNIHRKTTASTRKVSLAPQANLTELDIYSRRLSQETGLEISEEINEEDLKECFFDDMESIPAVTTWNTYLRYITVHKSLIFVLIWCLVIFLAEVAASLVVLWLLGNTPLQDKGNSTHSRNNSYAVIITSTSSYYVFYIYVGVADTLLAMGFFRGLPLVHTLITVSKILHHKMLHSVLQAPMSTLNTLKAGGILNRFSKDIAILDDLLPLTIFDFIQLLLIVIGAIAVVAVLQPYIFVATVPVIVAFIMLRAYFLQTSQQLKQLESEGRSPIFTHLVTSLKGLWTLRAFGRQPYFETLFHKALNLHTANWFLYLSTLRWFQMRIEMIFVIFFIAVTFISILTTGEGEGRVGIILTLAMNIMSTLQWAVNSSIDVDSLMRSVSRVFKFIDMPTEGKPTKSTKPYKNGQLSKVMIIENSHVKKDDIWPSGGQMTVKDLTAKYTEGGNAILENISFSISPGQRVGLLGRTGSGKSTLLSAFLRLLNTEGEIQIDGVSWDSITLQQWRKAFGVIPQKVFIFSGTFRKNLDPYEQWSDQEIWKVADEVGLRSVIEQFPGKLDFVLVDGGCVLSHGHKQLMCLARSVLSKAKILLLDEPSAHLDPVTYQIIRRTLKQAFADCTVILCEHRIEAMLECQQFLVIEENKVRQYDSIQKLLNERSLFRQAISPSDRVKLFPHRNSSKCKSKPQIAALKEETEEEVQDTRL
T1 sequence (P13569 with tags, fused parts or gaps DEL508-508): as above

EC50 [1]	EC50 [2]	SMILES
0.0204 µM	0.0122 µM	CC(c1cn(-c2ccccc2F)nn1)n1c(C#N)c(-c2cnc(C(F)(F)F)nc2)c2c(N)ncnc21 (single isomer, unassigned) [Example 9, 4-amino-7-{1-[1-(2-fluorophenyl)-1H-1,2,3-triazol-4-yl]ethyl}-5-[2-(trifluoromethyl)pyrimidin-5-yl]-7H-pyrrolo[2,3-d] pyrimidine-6-carbonitrile]
0.0175 µM	0.0686 µM	CC(c1cn(-c2ccccc2F)nn1)n1cc(-c2ccc(Cl)cc2)c2c(N)ncnc21 (single isomer, unassigned) [Example 112]
0.0108 µM	0.0229 µM	COc1nc(C(F)(F)F)ccc1-c1cn(Cc2cn(-c3ccccc3F)nn2)c2ncnc(N)c12 [Example 206, 7-{[1-(2-fluorophenyl)-1H-1,2,3-triazol-4-yl]methyl}-5-[2-methoxy-6-(trifluoromethyl)pyridin-3-yl]-7H-pyrrolo[2,3-d]pyrimidin-4-amine]
0.0383 µM	0.289 µM	Cc1c(-c2ccc(Cl)cc2)c2c(N)ncnc2n1C(C)c1cn(-c2ccccc2F)nn1 (centres unmarked) [Example 257, 5-(4-Chlorophenyl)-7-{1-[1-(2-fluorophenyl)-1H-1,2,3-triazol-4-yl]ethyl}-6-methyl-7H-pyrrolo[2,3-d]pyrimidin-4-amine]
0.997 µM	0.669 µM	COCC1CC1c1cn(Cc2cn(-c3ccccc3F)nn2)c2ncnc(N)c12 (centres unmarked) [Example 290, 7-{[1-(2-Fluorophenyl)-1H-1,2,3-triazol-4-yl]methyl}-5-[2-(methoxymethyl)cyclopropyl]-7H-pyrrolo[2,3-d]pyrimidin-4-amine]
0.0107 µM	0.00846 µM	CCC(c1cn(-c2ccccc2)nn1)n1cc(-c2cnc(C(F)(F)F)nc2)c2c(N)ncnc21 (single isomer, unassigned; enantiomer 1) [Example 129, 7-[1-(1-Phenyl-1H-1,2,3-triazol-4-yl)propyl]-5-[2-(trifluoromethyl)pyrimidin-5-yl]-7H-pyrrolo[2,3-d]pyrimidin-4-amine, enantiomer 1]
0.327 µM	0.63 µM	CCC(c1cn(-c2ccc(F)c(F)c2)nn1)n1cc(-c2cnc(C(F)(F)F)nc2)c2c(N)ncnc21 (single isomer, unassigned; enantiomer 2) [Example 154, 7-{1-[1-(3,4-Difluorophenyl)-1H-1,2,3-triazol-4-yl]propyl}-5-[2-(trifluoromethyl)pyrimidin-5-yl]-7H-pyrrolo[2,3-d]pyrimidin-4-amine, enantiomer 2]
0.0326 µM	0.0497 µM	COc1ncc(-c2cn(C(C)c3cc(-c4ccccc4F)no3)c3ncnc(N)c23)cn1 (single isomer, unassigned; (+)) [Example 184, (+) 7-{1-[3-(2-fluorophenyl)-1,2-oxazol-5-yl]ethyl}-5-(2-methoxypyrimidin-5-yl)-7H-pyrrolo[2,3-d]pyrimidin-4-amine]
0.00917 µM	0.0386 µM	CCC(c1cn(-c2ccc(F)c(F)c2)nn1)n1cc(-c2cc(F)cnc2OC)c2c(N)ncnc21 (single isomer, unassigned; enantiomer 1) [Example 155, 7-{1-[1-(3,4-Difluorophenyl)-1H-1,2,3-triazol-4-yl]propyl}-5-(5-fluoro-2-methoxypyridin-3-yl)-7H-pyrrolo[2,3-d]pyrimidin-4-amine, enantiomer 1]
0.0359 µM	0.0738 µM	CC(c1cn(-c2ccccc2F)nn1)n1cc(-c2ccc(OC(F)F)cc2)c2c(N)ncnc21 (centres unmarked) [Example 89, 5-[4-(Difluoromethoxy)phenyl]-7-{1-[1-(2-fluorophenyl)-1H-1,2,3-triazol-4-yl]ethyl}-7H-pyrrolo[2,3-d]pyrimidin-4-amine]
0.111 µM	0.25 µM	CCC(c1cn(-c2cc(F)cc(F)c2)nn1)n1cc(-c2cnc(C(F)(F)F)nc2)c2c(N)ncnc21 (single isomer, unassigned; enantiomer 1) [Example 311, 7-{1-[1-(3,5-Difluorophenyl)-1H-1,2,3-triazol-4-yl]propyl}-5-[2-(trifluoromethyl)pyrimidin-5-yl]-7H-pyrrolo[2,3-d]pyrimidin-4-amine, enantiomer 1]
0.0163 µM	0.0135 µM	N#Cc1c(-c2cnc(C(F)(F)F)nc2)c2c(N)ncnc2n1Cc1cn(-c2ccccc2F)nn1 [Example 37]
0.342 µM	0.142 µM	Nc1ncnc2c1c(C1CC1)cn2Cc1cn(-c2ccccc2F)nn1 [Example 289, 5-Cyclopropyl-7-{[1-(2-fluorophenyl)-1H-1,2,3-triazol-4-yl]methyl}-7H-pyrrolo[2,3-d]pyrimidin-4-amine]
0.0231 µM	0.00997 µM	Cc1c(C(C)n2cc(-c3cnc(C(F)(F)F)nc3)c3c(N)ncnc32)nnn1-c1ccccc1F (single isomer, unassigned; enantiomer 1) [Example 179, 7-{1-[1-(2-Fluorophenyl)-5-methyl-1H-1,2,3-triazol-4-yl]ethyl}-5-[2-(trifluoromethyl)pyrimidin-5-yl]-7H-pyrrolo[2,3-d]pyrimidin-4-amine, enantiomer 1]
0.03 µM	0.0215 µM	CCC(c1cn(-c2ccccc2F)nn1)n1c(C#N)c(-c2ccc(OC(F)F)nc2)c2c(N)ncnc21 (single isomer, unassigned) [Example 24, 4-Amino-5-[6-(difluoromethoxy)pyridin-3-yl]-7-{1-[1-(2-fluorophenyl)-1H-1,2,3-triazol-4-yl]propyl}-7H-pyrrolo[2,3-d]pyrimidine-6-carbonitrile]
0.0013 µM	0.00218 µM	Nc1ncnc2c1c(-c1cnc(C(F)(F)F)nc1)c(Br)n2Cc1cnn(-c2ccccc2F)c1 [Example 40, 6-bromo-7-{[1-(2-fluorophenyl)-1H-pyrazol-4-yl]methyl}-5-[2-(trifluoromethyl)pyrimidin-5-yl]-7H-pyrrolo[2,3-d]pyrimidin-4-amine]
0.0144 µM	0.0347 µM	CCC(c1cn(-c2cc(F)ccc2F)nn1)n1cc(-c2cnc(C(F)(F)F)nc2)c2c(N)ncnc21 (single isomer, unassigned) [Example 185, 7-{1-[1-(2,5-difluorophenyl)-1H-1,2,3-triazol-4-yl]propyl}-5-[2-(trifluoromethyl)pyrimidin-5-yl]-7H-pyrrolo[2,3-d]pyrimidin-4-amine]
0.0239 µM	0.0276 µM	COc1nc(C(F)(F)F)ncc1-c1cn(Cc2cn(-c3ccccc3F)nn2)c2ncnc(N)c12 [Example 252, 7-{[1-(2-Fluorophenyl)-1H-1,2,3-triazol-4-yl]methyl}-5-[4-methoxy-2-(trifluoromethyl)pyrimidin-5-yl]-7H-pyrrolo[2,3-d]pyrimidin-4-amine]
0.0315 µM	0.0196 µM	COc1ncncc1-c1cn(C(c2cn(-c3ccccc3F)nn2)C2CC2)c2ncnc(N)c12 (single isomer, unassigned; enantiomer 1) [Example 174, (+) 7-{Cyclopropyl[1-(2-fluorophenyl)-1H-1,2,3-triazol-4-yl]methyl}-5-(4-methoxypyrimidin-5-yl)-7H-pyrrolo[2,3-d]pyrimidin-4-amine, enantiomer 1]
0.199 µM	0.395 µM	CCC(c1cn(-c2ccccc2)nn1)n1cc(-c2ccc(OC)nc2)c2c(N)ncnc21 (single isomer, unassigned; enantiomer 1) [Example 125, 5-(6-Methoxypyridin-3-yl)-7-[1-(1-phenyl-1H-1,2,3-triazol-4-yl)propyl]-7H-pyrrolo[2,3-d]pyrimidin-4-amine, enantiomer 1]
0.003 µM	0.00571 µM	CCC(c1cn(-c2ccccc2F)nn1)n1cc(-c2cc(F)cnc2OC)c2c(N)ncnc21 (single isomer, unassigned; enantiomer 1) [Example 139, (+) 5-(5-Fluoro-2-methoxypyridin-3-yl)-7-{1-[1-(2-fluorophenyl)-1H-1,2,3-triazol-4-yl]propyl}-7H-pyrrolo[2,3-d]pyrimidin-4-amine, enantiomer 1]
0.0103 µM	0.00586 µM	CCC(c1cn(-c2ccccc2F)nn1)n1cc(-c2cnc(C(F)(F)F)nc2)c2c(N)ncnc21 (single isomer, unassigned; enantiomer 1) [Example 137, 7-{1-[1-(2-Fluorophenyl)-1H-1,2,3-triazol-4-yl]propyl}-5-[2-(trifluoromethyl)pyrimidin-5-yl]-7H-pyrrolo[2,3-d]pyrimidin-4-amine, enantiomer 1]
0.721 µM	0.918 µM	CCC(c1cn(-c2ccccc2F)nn1)n1cc(-c2cncnc2OC)c2c(N)ncnc21 (single isomer, unassigned; enantiomer 1) [Example 133, (−) 7-{1-[1-(2-Fluorophenyl)-1H-1,2,3-triazol-4-yl]propyl}-5-(4-methoxypyrimidin-5-yl)-7H-pyrrolo[2,3-d]pyrimidin-4-amine, enantiomer 1]
0.0261 µM	0.0222 µM	CCC(c1cn(-c2cccc(F)c2F)nn1)n1cc(-c2cncnc2OC)c2c(N)ncnc21 (single isomer, unassigned; enantiomer 2) [Example 306, (+) 7-{1-[1-(2,3-Difluorophenyl)-1H-1,2,3-triazol-4-yl]propyl}-5-(4-methoxypyrimidin-5-yl)-7H-pyrrolo[2,3-d]pyrimidin-4-amine, enantiomer 2]
0.103 µM	0.918 µM	COc1cnc(-c2cn(C(C)c3cc(-c4ccccc4F)no3)c3ncnc(N)c23)cn1 (centres unmarked) [Example 191, 7-{1-[3-(2-Fluorophenyl)-1,2-oxazol-5-yl]ethyl}-5-(5-methoxypyrazin-2-yl)-7H-pyrrolo[2,3-d]pyrimidin-4-amine]
